Test results published in article PMC7024302, “Ultrashort Cationic Lipopeptides–Effect of N-Terminal Amino Acid and Fatty Acid Type on Antimicrobial Activity and Hemolysis” (Molecules, 2020).
≈ marks a conversion by molar mass, not a printed value. Residues, ends and D or L forms follow the SMILES beside them. *: point of attachment. Myristoyl = CCCCCCCCCCCCCC(=O)*; Acm = CC(=O)NC*

Assays:
[1] = Determination of peptide hydrophobicity with RP-HPLC (adjusted retention time); assay type: physicochemical; settings: for tR’: Table 3, adjusted retention time as hydrophobicity, RP-HPLC C18, linear 10–55% acetonitrile over 60 min
Method: To determine peptide hydrophobicity, the Waters Alliance e2695 system with a Waters 2998 PDA Detector (software-Empower®3) was used. All analyses were carried out on a Phenomenex Luna C18(2) column (3.0 × 100 mm, 5 µm particle size, 100 Å pore size). The peptides were dissolved in water (0.1% TFA, v/v) to obtain a concentration of 1 g/L. UV detection at 214 nm was used, and aliquots (10 µL) were eluted with a linear 10–55% acetonitrile gradient in deionized water over 60 min at 25.0 ± 0.1 °C. The mobile phase flow rate was 0.5 mL/min. Both eluents contained 0.1% (v/v) of TFA. Each peptide sample was analyzed in triplicate.

S. aureus ATCC 25923 = assay type: cell-based, Staphylococcus aureus; settings: ATCC 25923, 18 h
Description: (§1) The Acinetobacter baumannii ATCC BAA-1605, Candida albicans ATCC 10231, Enterococcus faecium ATCC 700221, Klebsiella aerogenes ATCC 13048 (previously known as Enterobacter aerogenes), Klebsiella pneumoniae ATCC 700603, Pseudomonas aeruginosa ATCC 9027, Staphylococcus aureus ATCC 25923 and MRSA ATCC 33591, were acquired from the American Type Culture Collection (ATCC). Before running the tests, beads with cryo-protected microorganisms were transferred into fresh MHB (BioMaxima, Lublin, Poland) for bacteria or RPMI-1640 for fungi and incubated for 24 h at 37 °C. Then, the culture was seeded on the Mueller-Hinton agar (MHA) plates (BioMaxima, Lublin, Poland) for bacteria or Sabouraud dextrose agar (SDA) plates (BioMaxima, Lublin, Poland) for fungi and incubated as just mentioned. Cell densities for all assays were adjusted spectrophotometrically (Multiskan™ GO Microplate Spectrophotometer, Thermo Fisher Scientific, Vantaa, Finland) at 600 nm for bacteria and at 530 nm for fungi.
(§2) The MICs were determined by broth microdilution method according to the Clinical and Laboratory Standard Institute guidelines. For this purpose initial inoculums of bacteria (5 × 10^5 CFU/mL) in MHB (BioMaxima, Lublin, Poland) and fungi (2 × 10^3 CFU/mL) in RPMI-1640 with 2% D-glucose (Merck, Darmstadt, Germany) prepared with MOPS (pH 7.0 ± 0.1 at 25 °C; Merck, Darmstadt, Germany) were exposed to the ranging concentration of lipopeptides (0.5–256 µg/mL) and incubated at 37 °C for 18 h and 24 h respectively. The experiments were conducted on 96-well microtiter polystyrene plates (Kartell, Italy). The MIC was taken as the lowest peptide concentration at which a noticeable growth of microorganisms was inhibited. All experiments were conducted in triplicate.

[2] = tested on: S. aureus ATCC 33591 (MRSA); assay type: cell-based, Staphylococcus aureus; settings: ATCC 33591, 18 h
Description: as §1, §2

P. aeruginosa ATCC 9027 = assay type: cell-based, Pseudomonas aeruginosa; settings: ATCC 9027, 18 h
Description: as §1, §2

C. albicans ATCC 10231 = assay type: cell-based, Candida albicans; settings: ATCC 10231, 24 h, pH 7
Description: as §1, §2

[3] = tested on: human red blood cells (hRBCs); assay type: cell-based; settings: red cells of human, 1 h
Method: The hemolysis assay was performed as described earlier according to the method of Avrahami and Shai. Fresh human red blood cells (hRBCs) with anticoagulant (EDTA) were rinsed three times with a PBS (Merck, Darmstadt, Germany) by centrifugation at 800× g for 10 min and resuspended in PBS. Lipopeptides were serially diluted on 96-well microtiter polystyrene plate and hRBCs were added to reach final volume of 100 µL. Peptide concentration ranged between 0.5 and 256 µg/mL and final hRBCs concentration was 4% (v/v). Controls for zero hemolysis (blank) and 100% hemolysis consisted of hRBCs suspended in PBS and 1% of Triton-X 100 (Merck, Darmstadt, Germany), respectively. The plate was incubated for 1 h at 37 °C and then centrifuged (800× g, 10 min, 4 °C). Subsequently, supernatant was […] to new microtiter plates and absorbance at 540 nm were measured. All experiments were conducted in triplicate. Protocol of the study received approval from the local Bioethics Committee at the Medical University of Gdańsk (NKBBN/262/2019).

E. faecium ATCC 700221 = assay type: cell-based, Enterococcus faecium; settings: ATCC 700221, 18 h
Description: as §1, §2

[4] = tested on: K. pneumoniae ATCC 700603; assay type: cell-based, Klebsiella pneumoniae; settings: ATCC 700603, 18 h
Description: as §1, §2

[5] = tested on: A. baumannii ATCC BAA-1605; assay type: cell-based, Acinetobacter baumannii; settings: ATCC BAA-1605, 18 h
Description: as §1, §2

K. aerogenes ATCC 13048 = assay type: cell-based, Klebsiella aerogenes; settings: ATCC 13048, 18 h
Description: as §1, §2

[6] = 0.1% TFA, 25.0 °C, UV 214 nm, triplicate

SMILES	tR’ [1, 6] [min]	MIC SA (S. aureus ATCC 25923)	MIC S [2]	MIC PA (P. aeruginosa ATCC 9027) [µg/mL]	MIC CA (C. albicans ATCC 10231) [µg/mL]	HC50 [3]	MIC E1 (E. faecium ATCC 700221) [µg/mL]	MIC K [4]	MIC A [5] [µg/mL]	MIC E2 (K. aerogenes ATCC 13048)	tR’ (adjusted retention time) ([1]; Table 1 and b9, measure of hydrophobicity, RP-HPLC, Phenomenex Luna C18(2) 3.0 × 100 mm, 5 µm, linear 10–55% acetonitrile in water over 60 min, 0.1% TFA, 0.5 mL/min, 25.0 °C, UV 214 nm, peptide 1 g/L, triplicate) [min]	∆tR ([1]; tR’ of the lipopeptide minus tR’ of C10-RR-NH2 or C12-RR-NH2, same RP-HPLC conditions) [min]
CCCCCCCCCCCCCC(=O)N[C@@H](CSCNC(C)=O)C(=O)N[C@@H](CCCNC(=N)N)C(=O)N[C@@H](CCCNC(=N)N)C(N)=O [compound 14, C14-C(Acm)RR-NH2] (Myristoyl-Cys(Acm)-Arg-Arg-NH2)	43.24	16 µg/mL (≈ 22.4 µM)	16 µg/mL (≈ 22.4 µM)	16 (≈ 22.4 µM)	8 (≈ 11.2 µM)	39.72 (±1.25) µg/mL	8 (≈ 11.2 µM)	256 µg/mL (≈ 359 µM)	16 (≈ 22.4 µM)	256 µg/mL (≈ 359 µM)		
CCCCCCCCCC(=O)N[C@@H](Cc1ccccc1)C(=O)N[C@@H](CCCNC(=N)N)C(=O)N[C@@H](CCCNC(=N)N)C(N)=O [compound 24, C10-FRR-NH2] (HELM PEPTIDE1{[CCCCCCCCCC(=O)[*:2]].F.R.R.[am]}$$$$V2.0)	34.68	16 (>16) µg/mL	16 (>16) µg/mL	32 (≈ 50.7 µM)	64 (≈ 101 µM)	>256 µg/mL	32 (≈ 50.7 µM)	>256 (-) µg/mL	64 (≈ 101 µM)	>256 (-) µg/mL	34.68	10.38
CCCCCCCCCCCCCCCCCC(=O)N[C@@H](CCCNC(=N)N)C(=O)N[C@@H](CCCNC(=N)N)C(N)=O [compound 6, C18-RR-NH2, reference compound] (HELM PEPTIDE1{[CCCCCCCCCCCCCCCCCC(=O)[*:2]].R.R.[am]}$$$$V2.0)	53.39	16 µg/mL (≈ 26.9 µM)	16 µg/mL (≈ 26.9 µM)	64 (≈ 107 µM)	4 (≈ 6.71 µM)	25.19 (±0.67) µg/mL	8 (≈ 13.4 µM)	16 µg/mL (≈ 26.9 µM)	32 (≈ 53.7 µM)	16 µg/mL (≈ 26.9 µM)		

Further lines, results first:

tR’ [1, 6] [min]	MIC SA (S. aureus ATCC 25923)	MIC S [2]	MIC PA (P. aeruginosa ATCC 9027) [µg/mL]	MIC CA (C. albicans ATCC 10231) [µg/mL]	HC50 [3]	MIC E1 (E. faecium ATCC 700221) [µg/mL]	MIC K [4]	MIC A [5] [µg/mL]	MIC E2 (K. aerogenes ATCC 13048)	tR’ (adjusted retention time) ([1]; Table 1 and b9, measure of hydrophobicity, RP-HPLC, Phenomenex Luna C18(2) 3.0 × 100 mm, 5 µm, linear 10–55% acetonitrile in water over 60 min, 0.1% TFA, 0.5 mL/min, 25.0 °C, UV 214 nm, peptide 1 g/L, triplicate) [min]	∆tR ([1]; tR’ of the lipopeptide minus tR’ of C10-RR-NH2 or C12-RR-NH2, same RP-HPLC conditions) [min]	SMILES
41.17	16 µg/mL (≈ 22.8 µM)	16 µg/mL (≈ 22.8 µM)	32 (≈ 45.5 µM)	16 (≈ 22.8 µM)	70.11 (±2.93) µg/mL	8 (≈ 11.4 µM)	256 µg/mL (≈ 364 µM)	32 (≈ 45.5 µM)	256 µg/mL (≈ 364 µM)			CCCCCCCCCCCCCC(=O)N[C@@H](CCS(C)(=O)=O)C(=O)N[C@@H](CCCNC(=N)N)C(=O)N[C@@H](CCCNC(=N)N)C(N)=O [compound 58, C14-M(O2)RR-NH2] (HELM PEPTIDE1{[CCCCCCCCCCCCCC(=O)[*:2]].[CS(=O)(=O)CC[C@H](N[*:1])C(=O)[*:2]].R.R.[am]}$$$$V2.0)
36.76	4 µg/mL (≈ 5.75 µM)	8 µg/mL (≈ 11.5 µM)	32 (≈ 46 µM)	16 (≈ 23 µM)	211.32 (±9.57) µg/mL	8 (≈ 11.5 µM)	128 µg/mL (≈ 184 µM)	128 (≈ 184 µM)	128 µg/mL (≈ 184 µM)			CCCCCCCCCCCCCC(=O)N[C@@H](CCCNC(=N)N)C(=O)N[C@@H](CCCNC(=N)N)C(=O)N[C@@H](CCCNC(=N)N)C(N)=O [compound 82, C14-RRR-NH2] (HELM PEPTIDE1{[CCCCCCCCCCCCCC(=O)[*:2]].R.R.R.[am]}$$$$V2.0)
